Results as given in patent publication US12338203B2 (TAISHO PHARMACEUTICAL CO., LTD., priority 2019, dated 2025).

Biological target: T1, human LPAR1 (Homo sapiens, UniProt Q92633)
T1 construct: expressed in transfected cells
Assay: Test Example 1: antagonism against response of LPA-induced increase in intracellular Ca2+ concentration in RH7777 cells stably expressing human LPAR1
Type: cell-based
Conditions: RH7777 cells stably expressing human LPAR1; Fluo-4 fluorescence, FDSS6000; read-out: IC50 value (concentration producing 50% antagonism against response of LPA-induced increase in intracellular Ca2+ concentration) (converted)
Description: (1) Preparation of RH7777 cells stably expressing human LPAR1
The human LPAR1 expression vector was transfected into RH7777 cells to acquire human LPAR1 expressing cells.
(2) Test of antagonism against response of LPA-induced increase in intracellular Ca^2+ concentration
Cells stably expressing human LPAR1 were used for a test of antagonism against response of LPA-induced increase in intracellular Ca^2+ concentration.
The cells were seeded onto the Poly-D-Lysine 96 well black plate and incubated overnight. […] 50 μL of the Basal Buffer (1×HBSS, 20 mM HEPES, 2.5 mM Probenecid, 0.05% BSA, 0.25 mg/mL Amaranth, pH 7.4) containing the test compound was added thereto, followed by incubation at 37° C. for 30 minutes. In FDSS6000 (Hamamatsu Photonics K.K.), LPAs were added, and the change in intracellular Ca^2+ concentration was detected using the fluorescence value of a wavelength of 540 nm by an excitation wavelength of 480 nm as an indicator. […] The Rmax under […] without the test compound was used as the control value. The Rmax under Basal Buffer stimulation with no LPAs or test compounds was used as the basal value.
The percentage (%) of increase in intracellular Ca^2+ concentration was calculated by dividing the value obtained by subtracting the basal value from Rmax in the presence of LPAs and each concentration of the test compound by the value obtained by subtracting the basal value from the control value. The concentration of each test compound was plotted on the X axis and the percentage (%) of increase in intracellular Ca^2+ concentration was plotted on the Y axis, and the IC50 value was calculated by nonlinear regression using XLfit.

T1 sequence (Q92633 whole entry): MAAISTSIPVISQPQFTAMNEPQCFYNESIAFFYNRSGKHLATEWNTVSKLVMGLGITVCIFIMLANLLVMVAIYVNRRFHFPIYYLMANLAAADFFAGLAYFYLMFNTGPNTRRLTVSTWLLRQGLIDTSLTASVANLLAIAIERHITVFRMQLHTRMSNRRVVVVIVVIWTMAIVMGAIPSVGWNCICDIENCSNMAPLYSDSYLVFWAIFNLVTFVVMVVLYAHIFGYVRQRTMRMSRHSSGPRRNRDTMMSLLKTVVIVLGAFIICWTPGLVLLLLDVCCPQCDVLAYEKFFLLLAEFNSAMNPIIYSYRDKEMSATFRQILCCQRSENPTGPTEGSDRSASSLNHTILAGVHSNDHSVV

Compound | IC50 [nM]
CCOc1c(C(C)=O)ccc([C@@H](C)N(CCO[C@@H](C)c2ccccc2)C(=O)NC2(C(=O)O)CC2)c1C [Example 4-113] | 8.95
CCOc1cc([C@@H](C)N(CCCCc2ccccc2)C(=O)NC(C)(C)C(=O)O)cc(OCC)c1C [Example 1-13] | 20.4
CCOc1cc(C(C)N(CCCCc2ccccc2)C(=O)NC2(C(=O)O)CC(F)(F)C2)cc(OCC)c1C1CC1 (stereo not drawn) [Example 1-25] | 2.71
CCOc1cc([C@@H](C)N(CCC(F)(F)Cc2ccccc2)C(=O)NC2(C(=O)O)CC(OCC)C2)cc(OCC)c1C1CC1 (stereo partly drawn) [Example 4-94] | 3.61
CCOc1c(C(C)=O)ccc([C@@H](C)N(CCCCc2ccccc2)C(=O)NC2(C(=O)O)CC(OCC)C2)c1C (stereo partly drawn) [Example 1-102] | 2.03
CCOc1cc([C@@H](C)N(CC(C)CCc2ccccc2)C(=O)NC2(C(=O)O)CC(F)(F)C2)cc(OCC)c1C (stereo partly drawn) [Example 4-38] | 10.5
CCOc1cc([C@@H](C)N(CCC(F)(F)Cc2ccccc2)C(=O)NC2(C(=O)O)CC(F)(F)C2)cc(OCC)c1C(C)=O [Example 4-84] | 2.88
CCOc1cc([C@@H](C)N(CCCCc2ccccc2)C(=O)NC2(C(=O)O)CC2)cc(OCC)c1C1CC1 [Example 1-18] | 1.09
CCOc1c(C(C)=O)ccc([C@@H](C)N(CCCCc2ccccc2)C(=O)NC2CCC2C(=O)O)c1C (stereo partly drawn) [Example 1-127] | 33.7
CCOc1cc([C@@H](C)N(CCO[C@@H](C)c2cccc(Cl)c2)C(=O)NC2(C(=O)O)CCC2)c(Cl)c(OCC)c1C(C)=O [Example 4-176] | 15.3
COc1cc(C(C)N(CCCCc2ccccc2)C(=O)NC2(C(=O)O)CCC2)cc(OC)c1C (stereo not drawn) [Example 1-23] | 13
CCOc1cc([C@@H](C)N(CCCCc2ccccc2)C(=O)NC2(C(=O)O)CC(OCC)C2)cc(OCC)c1C(C)O (stereo partly drawn) [Example 1-98] | 4.33
CCOc1cc([C@@H](C)N(CCO[C@@H](C)c2ccccc2)C(=O)N[C@]2(C(=O)O)C[C@@H](OCC)C2)cc(OCC)c1C1CC1 [Example 4-139, cis-1-[([(1R)-1-(4-cyclopropyl-3,5-diethoxyphenyl)ethyl]{2-[(1S)-1-phenylethoxy]ethyl}carbamoyl)amino]-3-ethoxycyclobutane-1-carboxylic acid] | 1.32
CCOc1cc(C(C)N(CCCCc2ccccc2)C(=O)NC2(C(=O)O)CCCC2)cc(OC(C)C)c1C (stereo not drawn) [Example 1-114] | 128
CCOc1cc([C@@H](C)N(CCO[C@@H](C)c2ccccc2)C(=O)N[C@]2(C(=O)O)C[C@H](OCC)C2)cc(OCC)c1C(C)O (stereo partly drawn) [Example 4-134] | 3.92
CCOc1cc([C@@H](C)N(CCCCc2ccccc2C)C(=O)NC2(C(=O)O)CC(F)(F)C2)cc(OCC)c1C [Example 4-15] | 32.7

Compound | IC50 [nM]
CCOc1cc([C@@H](C)N(CCO[C@@H](C)c2ccccc2)C(=O)NC2(C(=O)O)CC2)cc(OCC)c1C(C)=O [Example 4-111] | 3.07
CCOc1cc([C@@H](C)N(CCCCc2ccccc2)C(=O)NCC2(C(=O)O)CCOCC2)cc(OCC)c1C(C)=O [Example 1-165] | 64.8
CCOc1cc([C@@H](C)N(CCOC(C)(C)c2ccccc2)C(=O)NC2(C(=O)O)CC(F)(F)C2)cc(OCC)c1C1CC1 [Example 4-160] | 10.4
CCOc1cc(C(C)N(CCCCc2ccccc2)C(=O)NC2(C(=O)O)CC(F)(F)C2)cc(OCC)c1C(F)F (stereo not drawn) [Example 1-51] | 3.52
CCOc1cc([C@@H](C)N(CCO[C@@H](C)c2ccccc2)C(=O)N[C@]2(C(=O)O)C[C@@H](OCC)C2)cc(OCC)c1C1CC1 [Example 4-138, trans-1-[([(1R)-1-(4-cyclopropyl-3,5-diethoxyphenyl)ethyl]{2-[(1S)-1-phenylethoxy]ethyl}carbamoyl)amino]-3-ethoxycyclobutane-1-carboxylic acid] | 2.91
CCOc1cc([C@@H](C)N(CCO[C@@H](C)c2ccccc2)C(=O)NC2(C(=O)O)CC(OC)C2)cc(OCC)c1C1CC1 (stereo partly drawn) [Example 4-129, cis-1-[([(1R)-1-(4-cyclopropyl-3,5-diethoxyphenyl)ethyl]{2-[(1S)-1-phenylethoxy]ethyl}carbamoyl)amino]-3-methoxycyclobutane-1-carboxylic acid] | 1.03
CCOc1cc(C(C)N(CCCCc2ccccc2)C(=O)NC2CCC(C(=O)O)C2)cc(OCC)c1C(C)=O (stereo not drawn) [Example 1-139] | 3.09
CCOc1cc([C@@H](C)N(CCCCc2cccc(OC)c2)C(=O)NC2(C(=O)O)CC(F)(F)C2)cc(OCC)c1C [Example 4-18, 1-({[(1R)-1-(3,5-Diethoxy-4-Methylphenyl)Ethyl][4-(3-Methoxyphenyl)Butyl]Carbamoyl}Amino)-3,3-Difluorocyclobutane-1-Carboxylic Acid] | 18.1
CCOc1cc([C@@H](C)N(CCCCc2ccccc2)C(=O)NC2(C(=O)O)CC3(CCC3)C2)cc(OCC)c1C [Example 1-121] | 9.23
CCOc1cc([C@@H](C)N(CCCCc2ccccc2)C(=O)N[C@]2(C(=O)O)C[C@@H](OC)C2)cc(OCC)c1C(C)=O [Example 1-86, Trans-1-({[(1R)-1-(4-Acetyl-3,5-Diethoxyphenyl)Ethyl](4-Phenylbutyl) Carbamoyl}Amino)-3-Methoxycyclobutane-1-Carboxylic Acid] | 2.33
CCOc1c(C(C)=O)ccc([C@@H](C)N(CCO[C@H](C)c2ccccc2)C(=O)NC2(C(=O)O)CCOCC2)c1C [Example 4-159] | 6.22
CCOc1cc(C(C)N(CCCCc2ccccc2)C(=O)NC2(C(=O)O)CCCC2)cc(OCC)c1C (stereo not drawn) [Example 1-112] | 18.7
CCOc1cc(C(C)N(CCCCc2ccccc2)C(=O)NC2(C(=O)O)CC(F)(F)C2)cc(OCC)c1C(C)C (stereo not drawn) [Example 1-49] | 5.21
CCOc1cc([C@@H](C)N(CCOCc2ccccc2)C(=O)NC2(C(=O)O)CC(F)(F)C2)c(Cl)c(OCC)c1C(C)O (single isomer, unassigned) [Example 5-55] | 1.09
CCCOc1cc(OCC)cc(C(C)N(CCCCc2ccccc2)C(=O)NC2(C(=O)O)CC(F)(F)C2)c1 (stereo not drawn) [Example 5-17] | 8.86

More lines, now with the values ahead:

IC50 [nM] | Compound
0.853 | CCOc1cc(C(C)N(CCOCc2ccccc2)C(=O)NC2(C(=O)O)CC(OC)C2)c(Cl)c(OCC)c1C1CC1 (stereo not drawn) [Example 5-206]
1.36 | CCOc1cc(C(C)N(CCOC(C)c2ccccc2)C(=O)NC2(C(=O)O)CC(OC)C2)c(Cl)c(OCC)c1C1CC1 (stereo not drawn) [Example 5-207]
5.08 | CCOc1cc(C(C)N(CCCCc2ccccc2)C(=O)NC2(c3nn[nH]n3)CC(OC)C2)cc(OCC)c1C(C)=O (stereo not drawn) [Example 10-14]
2.77 | COc1cc(C(C)N(CCOCc2ccccc2)C(=O)NC2(C(=O)O)CCOCC2)c(C)c(OC)c1C1CC1 (stereo not drawn) [Example 5-177]
1.1 | CCOc1cc(C(C)N(CCOCc2ccccc2)C(=O)NC2(C(=O)O)CC(OCC)C2)cc(OCC)c1C1CC1 (stereo not drawn) [Example 5-211]
0.851 | CCOc1cc(C(C)N(CCOCc2ccccc2)C(=O)NC2(C(=O)O)CCOCC2)c(C)c(OCC)c1C1CC1 (stereo not drawn) [Example 5-227]
1.33 | CCOc1cc(C(C)N(CCO[C@@H](C)c2ccccc2)C(=O)NC2(C(=O)O)CC(OC)C2)c(C)c(OCC)c1C1CC1 (stereo partly drawn) [Example 5-203]
272 | CCOc1cc(C(C)N(CCCCc2ccccc2)C(=O)NC2(C(=O)NS(=O)(=O)N(C)C)CCCC2)cc(OCC)c1C (stereo not drawn) [Example 7-5, 1-({[1-(3,5-Diethoxy-4-Methylphenyl)Ethyl](4-Phenylbutyl) Carbamoyl}Amino)-N-(Dimethylsulfamoyl)Cyclopentane-1-Carboxamide]
26.1 | CCO[C@H]1C[C@@](NC(=O)N(CCO[C@@H](C)c2ccccc2)C(C)c2cc(OC)c(C(C)=O)c(OC)c2)(C(=O)O)C1 (stereo partly drawn) [Example 5-126]
1.42 | CCOc1cc([C@@H](C)N(CCOCc2ccccc2)C(=O)NC2(C(=O)O)CC(OC)C2)c(C)c(OCC)c1C(C)=O (stereo partly drawn) [Example 5-73]
4.29 | CCOc1cc([C@@H](C)N(CCOCc2ccccc2)C(=O)NC2CCOCC2C(=O)O)c(Cl)c(OCC)c1C(C)O (single isomer, unassigned) [Example 5-70]
9.05 | CCOc1cc([C@@H](C)N(CCO[C@@H](C)c2ccccc2)C(=O)N[C@]2(C(=O)O)C[C@H](OC)C2)c(Cl)c(OCC)c1C(C)O (single isomer, unassigned) [Example 5-60]
9.55 | CCOc1cc(C(C)N(CCCCc2ccccc2)C(=O)NC2(C(=O)NS(C)(=O)=O)CC(F)(F)C2)cc(OCC)c1C(C)O (stereo not drawn) [Example 7-2]
30.3 | COc1cc([C@@H](C)N(CCO[C@@H](C)c2ccccc2)C(=O)NC2(C(=O)O)CC(OC)C2)cc(OC)c1C(C)=O (stereo partly drawn) [Example 5-122]
2.07 | CCOc1cc(C(C)N(CCOC(C)c2ccccc2)C(=O)NC2(C(=O)O)CCC2)c(Cl)c(OCC)c1C(C)=O (stereo not drawn) [Example 5-195]
143 | COc1cc(C(C)N(CCCCc2ccccc2)C(=O)NC2(C(=O)O)CC(F)(F)C2)cnc1C#N (stereo not drawn) [Example 5-90]
5.12 | CCOc1cc(OCC)nc(C(C)N(CCCCc2ccccc2)C(=O)NC2(C(=O)O)CC(F)(F)C2)c1 (stereo not drawn) [Example 5-85, 1-({[1-(4,6-Diethoxypyridin-2-Yl)Ethyl](4-Phenylbutyl) Carbamoyl}Amino)-3,3-Difluorocyclobutane-1-Carboxylic Acid]
